From ChEMBL document CHEMBL4033755, “19F-NMR-Based Dual-Site Reporter Assay for the Discovery and Distinction of Catalytic and Allosteric Kinase Inhibitors” (ACS Med Chem Lett, 2017)
Activity calls are given as the source filed them. The rule behind the calls is not given here.

Tests used:
[1] = target: T1, Tyrosine-protein kinase ABL1 (Homo sapiens, UniProt P00519); test: Binding affinity to allosteric site of N-terminal His6-tagged ABL (83 to 534 residues) (unknown origin) expressed in Escherichia coli co-expressing Protein Tyrosine Phosphatase 1b at 25 uM in presence of ABL001
T1 sequence (P00519 whole entry, the tested form may be a part): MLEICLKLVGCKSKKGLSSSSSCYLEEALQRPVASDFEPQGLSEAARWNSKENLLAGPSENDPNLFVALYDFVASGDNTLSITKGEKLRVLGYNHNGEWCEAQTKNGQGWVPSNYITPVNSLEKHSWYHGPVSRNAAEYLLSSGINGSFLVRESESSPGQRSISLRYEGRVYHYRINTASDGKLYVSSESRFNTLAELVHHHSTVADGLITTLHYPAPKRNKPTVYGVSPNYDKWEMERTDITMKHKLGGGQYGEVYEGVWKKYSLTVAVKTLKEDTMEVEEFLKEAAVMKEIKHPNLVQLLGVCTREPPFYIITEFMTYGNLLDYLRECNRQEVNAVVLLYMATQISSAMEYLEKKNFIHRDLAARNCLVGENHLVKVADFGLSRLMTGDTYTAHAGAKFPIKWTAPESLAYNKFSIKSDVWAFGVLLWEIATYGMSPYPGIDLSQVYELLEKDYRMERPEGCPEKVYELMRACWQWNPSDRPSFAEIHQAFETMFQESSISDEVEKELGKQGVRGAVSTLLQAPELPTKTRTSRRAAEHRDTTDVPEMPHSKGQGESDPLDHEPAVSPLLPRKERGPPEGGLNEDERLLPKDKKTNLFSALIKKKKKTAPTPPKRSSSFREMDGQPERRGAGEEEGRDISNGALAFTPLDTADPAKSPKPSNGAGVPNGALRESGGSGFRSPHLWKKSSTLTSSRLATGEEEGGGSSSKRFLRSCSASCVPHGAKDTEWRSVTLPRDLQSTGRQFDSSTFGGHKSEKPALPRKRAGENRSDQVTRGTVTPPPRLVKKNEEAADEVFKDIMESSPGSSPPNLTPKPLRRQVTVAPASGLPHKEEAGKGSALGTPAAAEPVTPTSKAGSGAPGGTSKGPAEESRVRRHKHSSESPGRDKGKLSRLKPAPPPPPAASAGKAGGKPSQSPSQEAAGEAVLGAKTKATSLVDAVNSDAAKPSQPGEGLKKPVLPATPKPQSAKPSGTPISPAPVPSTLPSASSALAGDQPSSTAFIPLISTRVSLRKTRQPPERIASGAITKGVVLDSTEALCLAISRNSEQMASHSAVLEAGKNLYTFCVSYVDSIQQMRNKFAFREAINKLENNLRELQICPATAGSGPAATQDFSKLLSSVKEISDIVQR

[2] = target: T1, Tyrosine-protein kinase ABL1; test: Binding affinity to catalytic site of N-terminal His6-tagged ABL (83 to 534 residues) (unknown origin) expressed in Escherichia coli co-expressing Protein Tyrosine Phosphatase 1b by NMR spectroscopy based dual-site competition assay
[3] = target: T1, Tyrosine-protein kinase ABL1; test: Displacement of ALLO-1 from allosteric site of N-terminal His6-tagged ABL (83 to 534 residues) (unknown origin) expressed in Escherichia coli co-expressing Protein Tyrosine Phosphatase 1b at 25 to 250 uM by 19F NMR spectroscopy based dual-site competition assay
[4] = target: T1, Tyrosine-protein kinase ABL1; test: Displacement of CAT-1 from catalytic site of N-terminal His6-tagged ABL (83 to 534 residues) (unknown origin) expressed in Escherichia coli co-expressing Protein Tyrosine Phosphatase 1b at 25 to 250 uM by 19F NMR spectroscopy based dual-site competition assay
[5] = target: T1, Tyrosine-protein kinase ABL1; test: Displacement of CAT-1 from catalytic site of N-terminal His6-tagged ABL (83 to 534 residues) (unknown origin) expressed in Escherichia coli co-expressing Protein Tyrosine Phosphatase 1b at 25 and 50 uM by 19F NMR spectroscopy based dual-site competition assay

Structure (SMILES)	Activity [1]	Kd [2]	inhibition [3]	inhibition [4]	inhibition [5]
NC(=O)C1CCN(c2ccc(C(F)(F)F)cn2)CC1	Active	43 µM			
FC(F)(F)Oc1ccc(Nc2ccncn2)cc1			Active	Active	inactive
